Source: US10517889B2, “Modulators of SMAD7 expression” (Ionis Pharmaceuticals, Inc., priority 2017, dated 2019)
Strand notation (5' to 3'): a small letter for the sugar, then the base; units joined by * are phosphorothioate-linked, units joined directly phosphodiester-linked; [ ] holds rarer units or linkages, { } end groups; capitals alone tell only the bases. k = constrained ethyl (cEt); [5mC] = 5-methylcytosine; d = 2'-deoxy (DNA)

tested on: human SMAD7 mRNA; test: Antisense inhibition of human SMAD7 mRNA expression in Hep3B cells by 3-10-3 cEt gapmers, 10,000 nM, electroporation (Example 2); assay type: cell-based; conditions: Hep3B cells, 10,000 nM antisense oligonucleotide, electroporation, approximately 24 hours, RT-PCR primer probe set RTS5062, relative to untreated control cells
Summary of the method: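 qRT-PCR (RTS5062) of SMAD7 mRNA, normalised to RIBOGREEN total RNA, gave percent inhibition relative to untreated controls. Hep3B cells at 20,000 per well received 10,000 nM oligonucleotide by electroporation, with ~24 h treatment.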

Substance | % Inhibition [%]
799936 (antisense k[5mC]*kT*kT*dT*dA*dA*dT*dT*dT*d[5mC]*dA*dG*dA*kG*kT*k[5mC]) [compound 799936] | 44
798877 (k[5mC]*kA*kT*dT*dG*dG*dG*d[5mC]*d[5mC]*dG*d[5mC]*dT*dG*k[5mC]*kA*kG; antisense) [compound 798877] | 24
800094 (antisense kA*kT*kG*dG*dA*dA*d[5mC]*d[5mC]*dT*dT*dG*dA*dA*kG*kG*k[5mC]) [compound 800094] | 49
800075 (antisense kT*kA*kA*dT*dT*dT*dT*d[5mC]*d[5mC]*dT*d[5mC]*dA*dA*k[5mC]*kA*kG) [compound 800075] | 55
798872 (kT*kA*kG*dT*d[5mC]*dG*dA*dA*dA*dG*d[5mC]*d[5mC]*dT*kT*kG*kA; antisense) [compound 798872] | 2
798840 (k[5mC]*kT*k[5mC]*dT*dT*dG*dT*dT*dG*dT*d[5mC]*d[5mC]*dG*kA*kA*kT; antisense) [compound 798840] | 56

same assay, conditions: Hep3B cells, electroporation with 10,000 nM antisense oligonucleotide, approximately 24 hours, RTS5062, percent inhibition of SMAD7 mRNA relative to untreated control cells

Substance | % Inhibition [%]
799807 (antisense kA*kA*kA*dT*dT*dG*dG*dA*dA*dT*dT*dG*dA*kG*kA*k[5mC]) [compound 799807] | 37
799525 (antisense kA*kG*kG*dT*dT*dT*dG*dG*dG*dT*dT*dG*dG*kA*k[5mC]*kT) [compound 799525] | 8
799612 (kA*kA*kA*d[5mC]*dA*dG*d[5mC]*dA*d[5mC]*dA*d[5mC]*dA*dG*kG*kG*k[5mC]; antisense) [compound 799612] | 50
799690 (antisense kA*kG*k[5mC]*dT*dA*d[5mC]*dA*dG*dT*d[5mC]*dA*dG*dG*k[5mC]*kT*kT) [compound 799690] | 51
799573 (kA*kA*kT*dA*dA*dA*dA*d[5mC]*d[5mC]*dA*dT*d[5mC]*dT*kA*kA*k[5mC]; antisense) [compound 799573] | 0
799585 (kA*kG*kA*d[5mC]*dA*dA*dG*dA*dT*dG*dT*dT*dA*kT*k[5mC]*kA; antisense) [compound 799585] | 34
799298 (antisense k[5mC]*k[5mC]*kA*dA*dA*dA*dG*dG*d[5mC]*dT*dG*dA*d[5mC]*kT*k[5mC]*kG) [compound 799298] | 54

same assay, conditions: Hep3B cells, electroporation with 10,000 nM antisense oligonucleotide, approximately 24 hours, SMAD7 mRNA by RT-PCR (RTS5062), relative to untreated control cells

Substance | % Inhibition [%]
830160 (antisense kT*kG*kG*dT*dG*dT*dG*dT*dT*dA*dA*d[5mC]*d[5mC]*kA*k[5mC]*kT) [compound 830160] | 54
830187 (antisense kA*kT*kT*dA*d[5mC]*d[5mC]*d[5mC]*dT*dG*d[5mC]*dT*d[5mC]*dA*kT*kG*kA) [compound 830187] | 31
830103 (kA*kA*kG*d[5mC]*d[5mC]*d[5mC]*dG*d[5mC]*dT*d[5mC]*dT*d[5mC]*dA*kG*k[5mC]*k[5mC]; antisense) [compound 830103] | 39
800045 (kG*kA*kG*dG*dA*dG*d[5mC]*dA*dA*dG*dG*dG*dA*kG*kT*kG; antisense) [compound 800045] | 59
830074 (k[5mC]*kT*k[5mC]*dA*dG*dA*dT*d[5mC]*dA*dA*dA*dG*dG*kT*kA*kA; antisense) [compound 830074] | 43
799965 (antisense k[5mC]*kT*k[5mC]*d[5mC]*dA*dG*dT*dG*dA*dA*dG*dT*dG*kA*kG*kA) [compound 799965] | 0
800104 (antisense kA*kG*kG*dA*d[5mC]*dG*dA*dG*dA*d[5mC]*dA*dG*dA*kA*kA*kG) [compound 800104] | 17
800023 (kA*kG*kG*dA*dA*dG*dA*dG*d[5mC]*d[5mC]*dT*dT*dG*kG*k[5mC]*k[5mC]; antisense) [compound 800023] | 0
830092 (kA*kT*kT*dA*dG*dT*d[5mC]*d[5mC]*d[5mC]*dA*dT*dG*dA*kA*kA*k[5mC]; antisense) [compound 830092] | 43
798700 (antisense k[5mC]*k[5mC]*k[5mC]*d[5mC]*dG*d[5mC]*dA*dG*d[5mC]*dT*d[5mC]*dG*d[5mC]*k[5mC]*kT*k[5mC]) [compound 798700] | 52
799258 (antisense kG*k[5mC]*k[5mC]*d[5mC]*d[5mC]*dA*dA*dA*dA*d[5mC]*dT*d[5mC]*d[5mC]*kA*kA*kA) [compound 799258] | 4
830212 (kG*k[5mC]*kA*dG*dG*dG*dT*dG*dG*dA*dG*dA*d[5mC]*k[5mC]*kG*kG; antisense) [compound 830212] | 43
800065 (antisense kT*kT*kA*dA*dG*dT*dA*dG*d[5mC]*dA*dG*d[5mC]*d[5mC]*kA*kG*kT) [compound 800065] | 55
772565 (antisense kA*kA*kT*dG*d[5mC]*d[5mC]*dT*dG*dA*dG*dA*dT*d[5mC]*k[5mC]*kG*kG) [compound 772565] | 64
798917 (kG*k[5mC]*kT*d[5mC]*dA*d[5mC]*dG*d[5mC]*dT*d[5mC]*dT*dG*dT*k[5mC]*k[5mC]*k[5mC]; antisense) [compound 798917] | 0

same assay, conditions: Hep3B cells, electroporation with 10,000 nM antisense oligonucleotide, approximately 24 hours, primer probe set RTS5062, relative to untreated control cells

Substance | % inhibition of SMAD7 mRNA expression [%] | % Inhibition [%]
798986 (antisense kG*kA*kT*dG*dA*d[5mC]*d[5mC]*dG*d[5mC]*d[5mC]*d[5mC]*d[5mC]*d[5mC]*k[5mC]*kT*kT) [compound 798986] | 34 | –
790468 (kG*k[5mC]*kG*dA*dG*dG*dA*dG*dA*dA*dA*dA*dG*kT*k[5mC]*kG; antisense) [compound 790468] | 0 | –
799363 (kG*kA*kG*dT*dT*dA*dT*d[5mC]*d[5mC]*d[5mC]*d[5mC]*dA*dT*k[5mC]*kA*kA; antisense) [compound 799363] | 49 | –
799378 (antisense kG*kA*kA*dT*dA*d[5mC]*dT*dG*dA*dG*dA*dA*dA*kA*k[5mC]*k[5mC]) [compound 799378] | 46 | –
799156 (antisense kG*kA*kA*dA*dG*dA*dA*dG*dA*dG*dT*dT*dA*kG*kG*kT) [compound 799156] | – | 37
799038 (kG*kG*kA*d[5mC]*d[5mC]*d[5mC]*d[5mC]*dA*dG*d[5mC]*d[5mC]*dG*d[5mC]*k[5mC]*kA*kG; antisense) [compound 799038] | – | 19
798762 (kT*kA*kG*dG*dA*d[5mC]*dG*dA*dG*dG*dG*d[5mC]*dG*kG*k[5mC]*kT; antisense) [compound 798762] | 56 | –
799160 (antisense kA*k[5mC]*kG*dA*dG*dT*dG*dT*dA*dT*dG*dA*dG*kT*kT*kG) [compound 799160] | – | 61
799246 (antisense kA*k[5mC]*kA*dG*dT*dA*dT*d[5mC]*dT*dG*dG*dG*d[5mC]*k[5mC]*kA*k[5mC]) [compound 799246] | 74 | –
799401 (antisense kT*k[5mC]*kT*dT*dT*dT*dA*dA*dG*dG*dA*dA*dA*kA*k[5mC]*k[5mC]) [compound 799401] | 53 | –

same assay, conditions: Hep3B cells, electroporation, 10,000 nM antisense oligonucleotide, approximately 24 hours, RTS5062, relative to untreated control cells

Substance | % inhibition of SMAD7 mRNA expression [%]
799498 (antisense kT*k[5mC]*kA*dA*dG*dA*dA*d[5mC]*dT*d[5mC]*dT*d[5mC]*d[5mC]*kT*kA*kA) [compound 799498] | 31
799795 (k[5mC]*k[5mC]*kA*dG*dA*dT*dG*dT*dT*dT*d[5mC]*d[5mC]*d[5mC]*k[5mC]*kA*k[5mC]; antisense) [compound 799795] | 66
799634 (k[5mC]*kA*kG*dA*d[5mC]*dT*dG*d[5mC]*d[5mC]*dA*dA*dA*dT*k[5mC]*kA*k[5mC]; antisense) [compound 799634] | 23
799658 (antisense kA*kA*k[5mC]*dT*dA*d[5mC]*dA*dA*dG*dT*dG*dG*dT*kT*kG*k[5mC]) [compound 799658] | 22
799757 (antisense k[5mC]*k[5mC]*kG*dT*dT*dA*d[5mC]*dT*dG*dG*dA*d[5mC]*dA*k[5mC]*kA*kG) [compound 799757] | 41

same assay, conditions: SMAD7 mRNA, Hep3B cells, 10,000 nM antisense oligonucleotide, electroporation, approximately 24 hours, primer probe set RTS5062, relative to untreated control cells

Substance | % Inhibition [%]
772567 (antisense kG*kA*k[5mC]*dT*dT*d[5mC]*d[5mC]*dG*dA*dG*dG*dA*dA*kT*kG*k[5mC]) [compound 772567] | 58
772929 (k[5mC]*kG*kG*dA*dA*dG*dT*d[5mC]*dT*dT*dG*dT*dA*kT*kT*kT; antisense) [compound 772929] | 37
829781 (antisense k[5mC]*k[5mC]*kG*dG*d[5mC]*d[5mC]*dA*d[5mC]*d[5mC]*dT*dG*dA*dA*k[5mC]*kA*k[5mC]) [compound 829781] | 31

same assay, conditions: SMAD7 mRNA, Hep3B cells, electroporation with 10,000 nM antisense oligonucleotide, approximately 24 hours, primer probe set RTS5062, relative to untreated control cells

Substance | % Inhibition [%]
829811 (kT*k[5mC]*k[5mC]*dA*dT*d[5mC]*dG*dG*dG*dT*dA*dT*d[5mC]*kT*kG*kG; antisense) [compound 829811] | 0
829933 (kG*kT*kG*dA*dT*dA*dA*d[5mC]*dA*d[5mC]*d[5mC]*d[5mC]*dA*kT*kA*kG; antisense) [compound 829933] | 38
829814 (kG*kT*k[5mC]*dT*dG*d[5mC]*dA*dG*dT*dT*dG*dG*dT*kT*kT*kG; antisense) [compound 829814] | 94
829976 (kA*k[5mC]*kA*dA*dA*dA*dG*dA*dG*dG*d[5mC]*d[5mC]*dG*k[5mC]*k[5mC]*kT; antisense) [compound 829976] | 10
